Laboratory results from US9696323B2, “Biomarkers for chagas disease related cardiomyopathy” (THE BOARD OF REGENTS OF THE UNIVERSITY OF TEXAS SYSTEM, priority 2013, dated 2017).

Test system: T. cruzi
Test: 2D-GE plasma proteome profile (differential protein expression) of T. cruzi-infected rats treated with PBN and/or BZ
Assay type: in vivo, rat
Conditions: plasma
Text: Certain embodiments include biomarkers identified in a previous study. Parasite persistence and oxidative damage in the heart are known to be of pathological significance during Chagas disease (Zacks et al., (2005) An Acad Bras Cienc, 77, 695-715; Gupta et al., (2009) Interdiscip Perspect Infect Dis, 2009, 190354). […] In the previous study the inventors identified 92 proteins that were differentially expressed or oxidized in chagasic plasma. Functional analysis allocated a majority of these proteins to inflammation/immunity and lipid metabolism categories, and to molecular pathways associated with cardiovascular dysfunction, e.g., myocardial infarction, hypertrophy, and fibrosis, and pulmonary embolism and hypertension. Some proteins in chagasic rats treated with PBN and/or BZ were allocated to curative pathways (immune regulation and cardiac remodeling). The 2D-GE results were validated by Western blotting. […] Increased plasma levels of GSN, MYL2, and VIM were directly correlated with the severity of cardiac disease in human chagasic patients. […] These findings have utility in diagnosing disease severity and designing suitable therapy for management of human chagasic patients.
Ingenuity Pathway Analysis (IPA) is a highly curated and comprehensive software used for the integration of proteins into networks and pathways with biological meaning (Thomas and Bonchev, (2010). Hum Genomics, 4, 353-360). Network analysis of the plasma proteome profile of chagasic rats identified four major sub-networks linked to host response to T. cruzi infection and disease development (Table V). The maximal numbers of the differentially expressed plasma proteins (19 proteins) in chagasic rats were associated with antigen presentation and inflammatory response category (Table V) and indicators of persistent inflammation, known to be of pathological significance in Chagas disease (Dhiman et al., (2009) Clinical and Vaccine Immunology, 16, 660-666; Tanowitz et al., (2009) Prog Cardiovasc Dis, 51, 524-539; Junqueira et al., (2010) Expert Rev Mol Med, 12, e29). Following functional analysis of the inflammation-associated proteins, 12 proteins (APOA1, APOE, C3, CFB, CFH, FGB, GSN, KRT10, PLG, SCG2, SERPINA1, and SERPINC1) were identified as being involved in immune cell trafficking and cell movement of leukocytes, granulocytes, phagocytes, neutrophils, and dendritic and antigen presenting cells. Some of the differentially expressed proteins in inflammation category were associated with activation (APOE, C3, CFH, GC and PLG), chemotaxis (C3, SCG2, SERPINA1, SERPINC1), and infiltration of leukocytes (APOA1, APOE, C3, PLG, KRT10) and neutrophils (C3, CFB, CFH, PLG). Up regulation of APOE, APOA1, APOH, GC and PLG in chagasic plasma was indicative of activation, binding and accumulation of macrophages in the disease state. Of the 19 differentially expressed inflammation-associated proteins, 11 proteins (APOE, C3, CFB, CFH, GSN, KRT10, SCG2, SERPINA1, SERPINC1, GC, and PLG) were carbonylated in chagasic plasma. […] Other proteins (APOE, C3, KRT3, and SCG2) were exposed to oxidation due to T. cruzi-induced, acute oxidative stress, but were normalized in expression and oxidation during the chronic phase.
Seventeen of the differentially expressed proteins in chagasic plasma, i.e., AFM, C4BPA, CACNA1D, DLGAP2, GC, KNG1, MUG1, MYLPF, MY05A, MY05B, PRPH, PZP, RAI14, and SCG2, were allotted to the lipid metabolism/molecular transport/small molecule biochemistry category (Table V) and functionally linked by IPA network analysis to lipid, fatty acid, and carbohydrate metabolism. A majority of the proteins in this category, i.e., ALB, APOA1, APOA4, APOE, APOH, C3, GC, GNAQ, MY05A, PLG, SCD2, SERPINA1, SERPINC1 and VIM, were linked to the synthesis, metabolism, transport, and modification of lipids and fatty acids, and to uptake and release or efflux of lipids, eicosanoids, and cholesterol. […]

[1] = RCP/RCB/RCPB groups (chronic infection)

SMILES: CC(C)(C)/[N+]([O-])=C/c1ccccc1 [PBN]
- Spot# 979 Average Normalized Density × 100,000 (RAP group (acute infection)): 59.46
- Spot# 992 Average Normalized Density × 100,000 (RAP group (acute infection)): 34.51
- Spot# 12, 180 Average Normalized Density × 100,000 [1]: 7.22
- Spot# 34 Average Normalized Density × 100,000 [1]: 0.45
- Spot# 37, 593 Average Normalized Density × 100,000 [1]: 6.48
- Spot# 49, 673 Average Normalized Density × 100,000 [1]: 13.39
- Spot# 52, 54, 302 Average Normalized Density × 100,000 [1]: 14.45
- Spot# 53, 225 Average Normalized Density × 100,000 [1]: 15.12
- Spot# 72 Average Normalized Density × 100,000 [1]: 16.43
- Spot# 73, 705, 787 Average Normalized Density × 100,000 [1]: 38.67
- Spot# 77 Average Normalized Density × 100,000 [1]: 8.675
- Spot# 88 Average Normalized Density × 100,000 [1]: 40.49
- Spot# 94 Average Normalized Density × 100,000 [1]: 2.55
- Spot# 115, 123 Average Normalized Density × 100,000 [1]: 10.96
- Spot# 149 Average Normalized Density × 100,000 [1]: 4.39
- Spot# 153 Average Normalized Density × 100,000 [1]: 10.34
- Spot# 177 Average Normalized Density × 100,000 [1]: 1.60
- Spot# 181 Average Normalized Density × 100,000 [1]: 1.90
- Spot# 184, 257, 328 Average Normalized Density × 100,000 [1]: 5.85
- Spot# 207, 555 Average Normalized Density × 100,000 [1]: 9.12
- Spot# 215 Average Normalized Density × 100,000 [1]: 1.97
- Spot# 266 Average Normalized Density × 100,000 [1]: 0.54
- Spot# 299 Average Normalized Density × 100,000 [1]: 1.17
- Spot# 315 Average Normalized Density × 100,000 [1]: 8.23
- Spot# 334 Average Normalized Density × 100,000 [1]: 0.71
- Spot# 341 Average Normalized Density × 100,000 [1]: 1.10
- Spot# 355, 359 Average Normalized Density × 100,000 [1]: 2.20
- Spot# 382, 385, 378, 572, 578, 595 Average Normalized Density × 100,000 [1]: 3.29
- Spot# 389 Average Normalized Density × 100,000 [1]: 4.32
- Spot# 430 Average Normalized Density × 100,000 [1]: 8.21
- Spot# 434, 678 Average Normalized Density × 100,000 [1]: 24.63
- Spot# 439 Average Normalized Density × 100,000 [1]: 14.99
- Spot# 452 Average Normalized Density × 100,000 [1]: 10.01
- Spot# 464 Average Normalized Density × 100,000 [1]: 6.65
- Spot# 479 Average Normalized Density × 100,000 [1]: 32.56
- Spot# 493 Average Normalized Density × 100,000 [1]: 13.46
- Spot# 515 Average Normalized Density × 100,000 [1]: 7.78
- Spot# 524 Average Normalized Density × 100,000 [1]: 21.96
- Spot# 551, 587, 908 Average Normalized Density × 100,000 [1]: 54.1
- Spot# 559 Average Normalized Density × 100,000 [1]: 27.58
- Spot# 571 Average Normalized Density × 100,000 [1]: 38.63
- Spot# 576, 620 Average Normalized Density × 100,000 [1]: 16.66
- Spot# 586, 614 Average Normalized Density × 100,000 [1]: 38.00
- Spot# 592 Average Normalized Density × 100,000 [1]: 31.55
- Spot# 604 Average Normalized Density × 100,000 [1]: 23.66
- Spot# 606 Average Normalized Density × 100,000 [1]: 5.58
- Spot# 627 Average Normalized Density × 100,000 [1]: 54.85
- Spot# 638 Average Normalized Density × 100,000 [1]: 5.92
- Spot# 649 Average Normalized Density × 100,000 [1]: 37.11
- Spot# 651 Average Normalized Density × 100,000 [1]: 57.85
- Spot# 655 Average Normalized Density × 100,000 [1]: 149.20
- Spot# 672 Average Normalized Density × 100,000 [1]: 17.65
- Spot# 676 Average Normalized Density × 100,000 [1]: 42.59
- Spot# 691 Average Normalized Density × 100,000 [1]: 16.29
- Spot# 715 Average Normalized Density × 100,000 [1]: 32.20
- Spot# 724 Average Normalized Density × 100,000 [1]: 2.23
- Spot# 728 Average Normalized Density × 100,000 [1]: 1.13
- Spot# 733 Average Normalized Density × 100,000 [1]: 2.44
- Spot# 740 Average Normalized Density × 100,000 [1]: 7.33
- Spot# 745 Average Normalized Density × 100,000 [1]: 3.21
- Spot# 749 Average Normalized Density × 100,000 [1]: 1.70
- Spot# 766 Average Normalized Density × 100,000 [1]: 6.32
- Spot# 779, 909 Average Normalized Density × 100,000 [1]: 6.88
- Spot# 796 Average Normalized Density × 100,000 [1]: 8.33
- Spot# 814 Average Normalized Density × 100,000 [1]: 1.56
- Spot# 817 Average Normalized Density × 100,000 [1]: 29.59
- Spot# 820, 1081 Average Normalized Density × 100,000 [1]: 2.20
- Spot# 827 Average Normalized Density × 100,000 [1]: 17.80
- Spot# 832 Average Normalized Density × 100,000 [1]: 7.55
- Spot# 860 Average Normalized Density × 100,000 [1]: 5.79
- Spot# 867 Average Normalized Density × 100,000 [1]: 3.00
- Spot# 881 Average Normalized Density × 100,000 [1]: 6.68
- Spot# 897 Average Normalized Density × 100,000 [1]: 31.94
- Spot# 900 Average Normalized Density × 100,000 [1]: 44.00
- Spot# 906 Average Normalized Density × 100,000 [1]: 87.74
- Spot# 966 Average Normalized Density × 100,000 [1]: 59.29
- Spot# 979 Average Normalized Density × 100,000 [1]: 41.38
- Spot# 992 Average Normalized Density × 100,000 [1]: 57.94
